What is called EC50 is the concentration giving half of the maximal effect.

The structures appear in SMILES notation.

The species named for test [1] is Bos taurus. Nature of the test: Activation of actin-stimulated bovine cardiac myosin S1 fragment ATPase activity in sarcomere at 10 uM after 10 mins by spectrophotometric analysis relative to control.
The nature of test [2]: Activation of actin-stimulated bovine cardiac myosin S1 fragment ATPase activity in sarcomere after 10 mins by spectrophotometric analysis. On the set-up: species or system Bos taurus.
The species named for a further test is Oryctolagus cuniculus. The test can be described thus: Activation of actin-stimulated rabbit psoas skeletal muscle myosin S1 fragment ATPase activity at 100 uM after 10 mins by spectrophotometric analysis relative to control.
The species entered for another test is Gallus gallus. The test can be described thus: Activation of actin-stimulated chicken gizzard smooth muscle myosin S1 fragment ATPase activity at 100 uM after 10 mins by spectrophotometric analysis relative to control.
The species entered for test [3] is Bos taurus. Nature of the test: Activation of actin-stimulated bovine cardiac myosin S1 fragment ATPase activity in sarcomere at 1 uM after 10 mins by spectrophotometric analysis relative to control.
The species named for test [4] is Bos taurus. The test can be described thus: Activation of actin-stimulated bovine cardiac myosin S1 fragment ATPase activity in sarcomere at 5 uM after 10 mins by spectrophotometric analysis relative to control.

As to `CN(C)S(=O)(=O)c1ccc(CCc2nnc(CCCc3ccccc3)o2)cc1`, in the test filed under Bos taurus [1], the Activity is 33.6%.
As to `c1ccc(CCCNc2nnc(-c3ccccc3)o2)cc1`, the EC50 in test [2] amounted to 5.25 µM. The Activity in the test listed under Oryctolagus cuniculus was found to be 1.9%; in the test filed under Gallus gallus, 2.3%; in the test filed under Bos taurus [3] it was 28.4%; in the test listed under Bos taurus [1], 50.5%; in the test listed under Bos taurus [4] it was 42.6%.
For `COc1ccc(-c2nnc(CCCc3ccccc3)o2)cc1OC`, in the test filed under Bos taurus [1], the Activity was 40.2%.
Take `COc1ccc(-c2noc(CCCc3ccccc3)n2)cc1OC`: in the test filed under Bos taurus [1], the Activity is 46.8%.
Still for that read-out and setting: then `c1ccc(CCCNc2nnc(-c3ccncc3)o2)cc1`, with 22.9%; and `COc1ccc(Cc2nnc(CCCc3ccccc3)o2)cc1OC`, with 16.1%; and `c1ccc(CCCCNc2nnc(-c3ccccc3)o2)cc1`, with 32.8%.
The same measure, in the same setting: to `CN(C)S(=O)(=O)c1ccc(CCCc2nc(-c3ccccc3)no2)cc1` belongs 37.2%.
`c1ccc(CCCc2nc(Cc3ccccc3)no2)cc1` displayed an EC50 in test [2] of 3.02 µM. In addition, the Activity in the test listed under Oryctolagus cuniculus was 3.3%; in the test listed under Gallus gallus it was 4.2%; in the test filed under Bos taurus [3], 34.1%; in the test filed under Bos taurus [1], 66.3%; in the test filed under Bos taurus [4] it was 60.3%.
For the compound `CN(C)S(=O)(=O)c1ccc(CCCc2nnc(-c3ccccc3)o2)cc1`, the Activity in the test listed under Bos taurus [1] is 11.9%.
Same read-out and setting: to `c1ccc(CCCc2nnc(-c3ccncc3)o2)cc1` belongs 15.9%.
Turning to `COc1ccc(Cc2noc(CCCc3ccccc3)n2)cc1OC`, the Activity in the test listed under Bos taurus [1] came out at 18.4%.
`COC(=O)N1CCN(Cc2cccc(NC(=O)Nc3ccc(C)nc3)c2F)CC1` [OMECAMTIV MECARBIL] gave an EC50 in test [2] of 3.35 µM. In addition, the Activity is 2.2% in the test filed under Oryctolagus cuniculus; -3.8% in the test listed under Gallus gallus; 31.2% in the test listed under Bos taurus [3]; 56.5% in the test filed under Bos taurus [1]; 49.9% in the test listed under Bos taurus [4].
`COc1ccc(-c2nnc(CCCc3ccccc3)o2)cc1`: the Activity in the test filed under Bos taurus [1] was determined as 37.3%.
Still for that read-out and setting: to `NS(=O)(=O)c1ccc(-c2nnc(NCCCc3ccccc3)o2)cc1` belongs 33%.
As for `c1ccc(CCCc2nnc(CCc3ccccc3)o2)cc1`, the EC50 in test [2] turned out to be 4.5 µM. The Activity in the test listed under Oryctolagus cuniculus is -3.1%; in the test filed under Gallus gallus, 4.1%; in the test filed under Bos taurus [3] it was 29.7%; in the test listed under Bos taurus [1], 51%; in the test listed under Bos taurus [4], 45.3%.
For the compound `c1ccc(CCCCc2nnc(C3CCOCC3)o2)cc1`, the Activity in the test listed under Bos taurus [1] was found to be 11.2%.
With `c1ccc(CCCc2nnc(CCC3CCCCC3)o2)cc1`, the EC50 in test [2] worked out at 3.48 µM. In addition, the Activity in the test listed under Oryctolagus cuniculus was -2.7%; in the test listed under Gallus gallus, 4.5%; in the test filed under Bos taurus [3] it was 30%; in the test listed under Bos taurus [1] it was 58.9%; in the test listed under Bos taurus [4], 53.1%.
Consider `COc1ccc(CCc2nnc(CCCc3ccccc3)o2)cc1OC`, for which, in the test filed under Bos taurus [1], the Activity amounted to 38.7%.
In the case of `c1ccc(CCCc2nnc(Cc3ccccc3)o2)cc1`, the EC50 in test [2] was 3.06 µM. Besides, the Activity is 1.8% in the test listed under Oryctolagus cuniculus; -3.9% in the test filed under Gallus gallus; 33.5% in the test filed under Bos taurus [3]; 62.9% in the test filed under Bos taurus [1]; 60.2% in the test filed under Bos taurus [4].
As for `c1ccc(CCCCc2nnc(-c3ccncc3)o2)cc1`, the Activity in the test listed under Bos taurus [1] was 8.6%.
Still for that read-out and setting: then `NS(=O)(=O)c1ccc(-c2nnc(CCCc3ccccc3)o2)cc1`, with 22.5%.
On the same count and under the same terms, then `c1ccc(CCCCc2nc(-c3ccccc3)no2)cc1`, with 35.9%.
`c1ccc(CCCc2nc(-c3ccccc3)no2)cc1` registered an EC50 in test [2] of 3.18 µM. The Activity was -5.3% in the test listed under Oryctolagus cuniculus; -2.4% in the test listed under Gallus gallus; 31.9% in the test filed under Bos taurus [3]; 60.7% in the test filed under Bos taurus [1]; 56.4% in the test filed under Bos taurus [4].
Consider `COc1ccc(-c2nnc(NCCCc3ccccc3)o2)cc1OC`, for which, in the test filed under Bos taurus [1], the Activity is 41.7%.
With `c1ccc(CCNc2nnc(-c3ccccc3)o2)cc1`, in the test filed under Bos taurus [1], the Activity was determined as 35.2%.
Consider `c1ccc(CCCc2nnc(C3CCOCC3)o2)cc1`, for which the Activity in the test filed under Bos taurus [1] was found to be 30.8%.
Same read-out and setting: then `c1ccc(CCCc2nnc(CCCc3ccccc3)o2)cc1`, with 2.5%.
For `c1ccc(CCCc2nnc(-c3ccccc3)o2)cc1`, the EC50 in test [2] stood at 3.27 µM. Further, the Activity was -2.5% in the test filed under Oryctolagus cuniculus; -3.7% in the test filed under Gallus gallus; 32.5% in the test listed under Bos taurus [3]; 59.2% in the test listed under Bos taurus [1]; 55.2% in the test listed under Bos taurus [4].
As to `Fc1ccc(Cc2nnc(CCCc3ccccc3)o2)cc1`, in the test filed under Bos taurus [1], the Activity stood at 4.2%.
As to `Cc1ccc2c(c1)C(=O)[C@]1(O)CCN(c3ccccc3)C1=N2`, the Activity in the test filed under Oryctolagus cuniculus was -54.1%; in the test filed under Gallus gallus, -37.3%.

Source of the values: ChEMBL document CHEMBL4118284, “Exploration of diphenylalkyloxadiazoles as novel cardiac myosin activator” (Bioorg Med Chem Lett, 2018).
